Source: PubChem BioAssay (NCI)
Where “and” joins values, the source holds several entries; their conditions need not be identical. Identical values can stand only once.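 Grown in 96-well plates, cells were treated for 48 hours with each compound at five concentrations. Insufficient inhibition: endpoint recorded as highest concentration tested. At the GI50, growth is halved. TGI is the concentration that stops growth completely.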

Legend:
Test in all cases: NCI tumour cell line growth inhibition, 48 h
M14 melanoma = tested on: M14 melanoma
HCT-116 colon = tested on: HCT-116 colon
SK-MEL-2 melanoma = tested on: SK-MEL-2 melanoma
EKVX NSCLC = tested on: EKVX NSCLC
SNB-19 CNS = tested on: SNB-19 CNS
IGROV1 ovarian = tested on: IGROV1 ovarian
HCT-15 colon = tested on: HCT-15 colon
OVCAR-3 ovarian = tested on: OVCAR-3 ovarian
SNB-75 CNS = tested on: SNB-75 CNS
HL-60(TB) leukemia = tested on: HL-60(TB) leukemia

| Compound | TGI (M14 melanoma) | TGI (HCT-116 colon) | TGI (SK-MEL-2 melanoma) | TGI (EKVX NSCLC) | TGI (SNB-19 CNS) [µM] | TGI (IGROV1 ovarian) | TGI (HCT-15 colon) [µM] | TGI (OVCAR-3 ovarian) | TGI (SNB-75 CNS) | TGI (HL-60(TB) leukemia) | GI50 (M14 melanoma) | GI50 (HCT-116 colon) | GI50 (SK-MEL-2 melanoma) | GI50 (EKVX NSCLC) | GI50 (SNB-19 CNS) | GI50 (IGROV1 ovarian) | GI50 (HCT-15 colon) | GI50 (OVCAR-3 ovarian) | GI50 (SNB-75 CNS) | GI50 (HL-60(TB) leukemia) |
| --- | --- | --- | --- | --- | --- | --- | --- | --- | --- | --- | --- | --- | --- | --- | --- | --- | --- | --- | --- | --- |
| CN(Cc1cc(Br)cc(Br)c1O)Cc1c(O)ccc2ccccc12 | 41.5 µM | 40.6 µM | 35.6 µM | 35.8 µM | 38.9 | 44.6 µM | > 100 | 31.8 µM | 39.1 µM | 46.1 µM | – | – | – | – | – | – | – | – | – | – |
| CC(=[N-])N1CCC[C@@H](Nc2c3ccccc3nc3ccccc23)C1.[Cl][Pt].[NH-]CCC[NH-] | 23.7 µM | > 100 µM | 7.23 µM | 36 µM | > 100 | > 100 µM | > 100 | > 41.6 µM | 10.1 µM | > 100 µM | 3.47 µM | 1.28 µM | 2.28 µM | 2.17 µM | 1.49 µM | 0.577 µM | 2.37 µM | 0.763 µM | 2.72 µM | 2.04 µM |
| COC(=O)C12OCC34C(CC5C(C)C6=CC(=O)OC6=CC5(C)C3C(O)C1O)OC(=O)C(O)C24 (configuration not stated) | 0.504 µM and 2.22 µM | 6.31 µM | 0.944 µM and 2.43 µM | – | – | 0.436 µM and 1.41 µM | 12.9 | 3.61 µM | 0.682 µM and 2.48 µM | 4.27 µM | 0.177 µM and 0.767 µM | 0.224 µM | 0.313 µM | 0.249 µM | 0.0525 µM | 0.17 µM | 0.458 µM | 0.282 µM | 0.158 µM | – |
| CC1(N)CCN(c2cnc(-c3cccc(Cl)c3Cl)c(N)n2)CC1 | 33.2 µM | 29 µM | 46.4 µM | > 100 µM | > 100 | > 100 µM | > 100 | > 100 µM | 27 µM | > 100 µM | 16.4 µM | 14.5 µM | 20.1 µM | 2.58 µM | 7.63 µM | 6.48 µM | 28.3 µM | 35.1 µM | 7.24 µM | 41.9 µM |
| C/C=C(\CCOS(=O)(=O)c1ccc(C)cc1)[Si](C)(C)C | > 100 µM | > 100 µM | > 100 µM | > 100 µM | > 100 | > 100 µM | > 100 | > 100 µM | > 100 µM | > 100 µM | – | – | – | – | – | – | – | – | – | – |
| COc1cc2nccc(Oc3ccc(NC(=O)Nc4cc(C)on4)c(Cl)c3)c2cc1OC | 7.83 µM and > 10 µM | 5.48 µM and > 10 µM | 10.4 µM and > 10 µM | 49.6 µM and > 10 µM | > 100 | 8.36 µM and > 10 µM | > 100 | 14.4 µM and > 10 µM | 6.24 µM and > 10 µM | 11.8 µM and > 10 µM | 2.55 µM and 3.05 µM | 2.29 µM and 2.91 µM | 3.56 µM and 3.33 µM | 3.02 µM and 4.69 µM | 5.12 µM and > 10 µM | 2.51 µM and 2.85 µM | 4.36 µM and 4.2 µM | 4 µM and 7.96 µM | 1.99 µM and 2.06 µM | 3.35 µM and 3.2 µM |
| O=C1C=CC(=O)N1c1cccc(N2C(=O)C=CC2=O)c1 | 3.71 µM | 3.22 µM | 5.55 µM | 83.1 µM | 35.8 | 5.52 µM | 3.93 | 3.54 µM | 18.3 µM | 5.12 µM | 1.85 µM | 1.7 µM | 2.52 µM | 19.1 µM | 18.6 µM | 2.38 µM | 1.91 µM | 2.04 µM | 4.71 µM | 1.79 µM |
| CN(CC(=O)Nc1nc2ccccc2[nH]1)S(=O)(=O)c1ccc(Cl)cc1 | > 100 µM | > 100 µM | > 100 µM | > 100 µM | > 100 | > 100 µM | > 100 | > 100 µM | 78.8 µM | > 100 µM | > 100 µM | > 100 µM | 2.92 µM | 52.3 µM | > 100 µM | 21 µM | > 100 µM | > 100 µM | 22.1 µM | > 100 µM |
| CC([C@H]1CCC2C3CCC4C[C@@H](N)CC[C@]4(C)C3CC[C@@]21C)N(C)C (some centres not stated) | 3.54 µM | 5.02 µM | 21.3 µM | 54.8 µM | 32.7 | 35 µM | 4.72 | 21.2 µM | 24.9 µM | 13.2 µM | 1.79 µM | 1.9 µM | 8.45 µM | 13.8 µM | 15.8 µM | 8.88 µM | 1.59 µM | 6.96 µM | 8.15 µM | 5.55 µM |
| Cc1ccc(NC(=O)CSc2nnc3n(Cc4ccccc4)c(=O)c4c(C)c(C(N)=O)sc4n23)cc1 | > 100 µM | > 100 µM | 43.3 µM | > 100 µM | > 100 | > 100 µM | > 100 | > 100 µM | 23.8 µM | > 100 µM | 26 µM | 3.5 µM | 16 µM | 95 µM | 14.6 µM | 37 µM | > 100 µM | > 100 µM | 5.72 µM | > 100 µM |
| O=C1OC(=O)C2CCCC3CCCC1C32 (configuration not stated) | > 100 µM | > 100 µM | > 100 µM | > 100 µM | > 100 | > 100 µM | > 100 | > 100 µM | > 100 µM | > 100 µM | – | – | – | – | – | – | – | – | – | – |
| CN1CCN(c2ccc(NC(=O)c3cncnc3Nc3ccc(OCc4ccccn4)c(Cl)c3)cc2)CC1 | 1.4 µM | 1.91 µM | 11 µM | 14.6 µM | 11.8 | 9.18 µM | 3.19 | 13 µM | 9.23 µM | 9.28 µM | 0.65 µM | 0.788 µM | 4.74 µM | 6.25 µM | 5.11 µM | 3.13 µM | 0.961 µM | 5.23 µM | 4.58 µM | 4.11 µM |
| CCC(=O)Nc1ccc(C)c(-c2ccc(C(=O)NCC3CC3)cc2)c1 | > 25 µM | > 25 µM | > 25 µM | > 25 µM | > 25 | > 25 µM | > 25 | > 25 µM | > 25 µM | > 25 µM | > 25 µM | > 25 µM | > 25 µM | > 25 µM | > 25 µM | > 25 µM | > 25 µM | > 25 µM | > 25 µM | > 25 µM |
